Measurements as given in patent US4259332A, “Novel taurine derivatives” (priority 1979, dated 1981).

Legend:
[1] = Vasodilator activity (vasodilation of the ocular conjunctiva in guinea pigs); format: in vivo, guinea pig
[2] = Antilipemic action, Morris, Handler or Nath diet, Compound B; format: in vivo, Wistar rat; settings: 45 days, 200 mg/kg orally
Description: Wistar rats were treated for 45 days with a Morris diet, a Handler diet or a Nath diet. Simultaneously with the diet they received each day 200 mg/kg of Compound B or choline (except for the Nath diet) orally.

[3] = Antilipemic action, Morris or Handler diet, Compound A; format: in vivo, Wistar rat; settings: 50 days, 200 mg/kg orally
Description: Wistar rats were treated for 50 days with a Morris diet or a Handler diet. Simultaneously with the diet they received 200 mg/kg of Compound A or of choline orally every day. The controls only received the diet. The following were examined at the end of the treatment: (a) total cholesterol, total lipids and beta-lipoproteins in the serum, (b) BSF excretion in the bile.

[4] = Choleretic activity in cannulated rats; format: in vivo, rat; settings: for Bile dry residue change / Bile volume change / Bile dry residue after 2 h / Bile volume after 2 h: 100 mg/kg i.v.; for Bile dry residue after 2 h / Bile volume after 2 h: given after first hour; for Bile dry residue after 1 h / Bile volume after 1 h: before treatment (first hour)
Description: Rats were fitted with a cannula, the bile volume was measured after the first hour, they were then treated with a test compound and the bile volume was measure after the second hour, so as to determine the percentage change. The various compounds were administered intravenously at a dose of 100 mg/kg.

[5] = Protection against hepatic intoxication by CCl4 and cold, Compound B (BSF in blood); format: in vivo; settings: 500 mg/kg endoperitoneal
Description: Oral administration of 5 ml/kg of a 20% solution of CCl4 in oil, with simultaneous endoperitoneal administration of 500 mg/kg of Compound B, was followed by exposure for 5 hours at 4° C. BSF in the blood (30 mg/kg i.v.) was tested. A comparison product, homocysteinethiolactone (OCT) was employed.
10 Animals were treated per group, and the results expressed as percentage change with respect to the controls were as shown in Table 4.

SMILES: O=C(O)c1cccnc1 [Nicotinic acid, nicotinic acid]
- Vasodilator effect: duration ([1]; 10.0 mg/kg endoperitoneal): 0 min
- Vasodilator effect: positive response ([1]; 10.0 mg/kg endoperitoneal): 0%
- Vasodilator effect: time of appearance ([1]; 10.0 mg/kg endoperitoneal): 0 s
- Vasodilator effect: positive response ([1]; 25.0 mg/kg endoperitoneal): 20%
- Vasodilator effect: duration ([1]; 50.0 mg/kg endoperitoneal): 87 min
- Vasodilator effect: positive response ([1]; 50.0 mg/kg endoperitoneal): 80%
- Vasodilator effect: time of appearance ([1]; 50.0 mg/kg endoperitoneal): 180 s

SMILES: O=C(OC1C(OC(=O)c2cccnc2)C(OC(=O)c2cccnc2)C(OC(=O)c2cccnc2)C(OC(=O)c2cccnc2)C1OC(=O)c1cccnc1)c1cccnc1 (stereo not shown) [Mesoinosital hexanicotinate, mesoinosital hexanicotinate]
- Vasodilator effect: duration ([1]; 1.0 mg/kg endoperitoneal): 0 min
- Vasodilator effect: positive response ([1]; 1.0 mg/kg endoperitoneal): 0%
- Vasodilator effect: duration ([1]; 10.0 mg/kg endoperitoneal): 87 min
- Vasodilator effect: positive response ([1]; 10.0 mg/kg endoperitoneal): 100%
- Vasodilator effect: time of appearance ([1]; 10.0 mg/kg endoperitoneal): 81 s

SMILES: O=C(O)C(O)C(O)C(=O)O.OCc1cccnc1 (stereo not shown) [3-Pyridylcarbinol tartrate, 3-pyridylcarbinol tartrate]
- Vasodilator effect: duration ([1]; 0.1 mg/kg endoperitoneal): 0 min
- Vasodilator effect: positive response ([1]; 0.1 mg/kg endoperitoneal): 0%
- Vasodilator effect: time of appearance ([1]; 0.1 mg/kg endoperitoneal): 0 s
- Vasodilator effect: positive response ([1]; 1.0 mg/kg endoperitoneal): 40%
- Vasodilator effect: duration ([1]; 10.0 mg/kg endoperitoneal): 120 min
- Vasodilator effect: positive response ([1]; 10.0 mg/kg endoperitoneal): 100%
- Vasodilator effect: time of appearance ([1]; 10.0 mg/kg endoperitoneal): 57 s

SMILES: C[N+](C)(C)CCO [Choline, choline, reference compound]
- Bile BSF, percentage change vs control ([2]; Handler diet, B and Choline): -39.5%
- Liver total lipids, percentage change vs control ([2]; Handler diet, B and Choline): -29.2%
- Serum total cholesterol, percentage change vs control ([2]; Handler diet, B and Choline): -21.1%
- Serum total lipids, percentage change vs control ([2]; Handler diet, B and Choline): +44.2%
- Bile BSF, percentage change vs control ([2]; Morris diet): -2.8%
- Liver total lipids, percentage change vs control ([2]; Morris diet): +14.0%
- Serum beta-lipoproteins, percentage change vs control ([2]; Morris diet): +89.8%
- Serum total cholesterol, percentage change vs control ([2]; Morris diet): -22.9%
- Serum total lipids, percentage change vs control ([2]; Morris diet): +2.3%
- Bile BSF excretion, percentage change vs controls ([3]; Handler diet): -39.5%
- Serum total cholesterol, percentage change vs controls ([3]; Handler diet): -21.1%
- Serum total lipids, percentage change vs controls ([3]; Handler diet): +44.2%
- Bile BSF excretion, percentage change vs controls ([3]; Morris diet): -2.8%
- Serum beta-lipoproteins, percentage change vs controls ([3]; Morris diet): +89.8%
- Serum total cholesterol, percentage change vs controls ([3]; Morris diet): -22.9%
- Serum total lipids, percentage change vs controls ([3]; Morris diet): +2.3%

SMILES: CCC(C(=O)O)C1(O)CCC(c2ccccc2)CC1 (stereo not drawn) [α-(1-hydroxy-4-phenylcyclohexyl)butyric acid]
- Bile dry residue change [4]: +39.1%
- Bile volume change [4]: +90.0%
- Bile dry residue after 2 h [4]: 32.7 mg/h
- Bile volume after 2 h [4]: 1.14 mL/h
- Bile dry residue after 1 h [4]: 23.5 mg/h
- Bile volume after 1 h [4]: 0.60 mL/h

SMILES: O=S(=O)(O)CCNCCO [N-hydroxyethyltaurine]
- Bile dry residue change [4]: -10.9%
- Bile volume change [4]: -12.2%
- Bile dry residue after 2 h [4]: 26.0 mg/h
- Bile volume after 2 h [4]: 0.72 mL/h
- Bile dry residue after 1 h [4]: 29.1 mg/h
- Bile volume after 1 h [4]: 0.82 mL/h

SMILES: NC1CCSC1=O (stereo not shown) [OCT, homocysteinethiolactone, reference compound]
- Hepatic intoxication protection, percentage change of BSF in blood vs controls ([5]; test number 1): -22.7%
- Hepatic intoxication protection, percentage change of BSF in blood vs controls ([5]; test number 2): -18.5%
